Reference: patent publication US10076519B2 (CYTOKINETICS, INC., priority 2010, dated 2018)

System: rabbit skeletal myofibrils (fast skeletal myofibrils)
Assay: Activation of fast skeletal myofibrils (PUMA assay, PK/LDH-coupled ATPase at pCa25)
Type: biochemical
Details: AC1.4 determined according to the procedure of Example 39; reported as class symbols
Procedure: Preparation of Fast Skeletal Myofibrils.
Rabbit skeletal myofibrils were prepared based upon the method of Herrmann et al. (Biochem. 32(28):7255-7263(1993). Myofibrils were prepared from rabbit psoas muscle purchased from Pel-Freez Biologicals (Arkansas) within 2 days of ordering, stored on ice. Minced muscle was homogenized in 10 volumes of ice-cold “standard” buffer (50 mM Tris, pH 7.4, 0.1M potassium acetate, 5 mM KCl, 2 mM DTT, 0.2 mM PMSF, 10 μM leupeptin, 5 μM pepstatin, and 0.5 mM sodium azide) containing 5 mM EDTA and 0.5% Triton X-100 using an Omni-Macro homogenizer. Myofibrils were recovered by low speed centrifugation (3000 rpm for 10 minutes) and washed 2 times in the Triton X-100 containing buffer to ensure removal of cellular membrane. Following the Triton washes, myofibrils were washed 3 times in “standard” buffer containing 2 mM magnesium acetate. A final wash in assay buffer (12 mM PIPES, pH 6.8, 60 mM KCl, 1 mM DTT) was performed and brought to 10% sucrose for flash freezing in liquid nitrogen and storage at −80° C.
Activation of Fast Skeletal Myofibrils.
Fast fiber activators were identified by measuring the enzymatic activity of muscle myofibril preparations using the proprietary PUMA™ (see, e.g., U.S. Pat. Nos. 6,410,254, 6,743,599, 7,202,051, and 7,378,254) assay system. Myofibril preparations consisted of rabbit skeletal muscle (approximately 90% fast fibers) that had been mechanically homogenized and washed with a detergent (triton X-100) to remove cellular membranes. This preparation retained all of the sarcomeric components in a native conformation and the enzymatic activity was still regulated by calcium. Compounds were tested using a myofibril suspension and a level of calcium sufficient to increase enzymatic activity of the myofibrils to 25% of their maximal rate (termed pCa25). Enzymatic activity was tracked via a pyruvate kinase and lactate dehydrogenase-coupled enzyme system. This assay regenerates myosin-produced ADP into ATP by oxidizing NADH, producing an absorbance change at 340 nm. The buffering system was 12 mM Pipes, 2 mM MgCl2, 1 mM DTT at pH 6.8 (PM12 buffer).
Using procedures similar to those described herein, utilizing reagents and intermediates commercially available (e.g., Sigma-Aldrich, St. Louis, Mo.) or readily synthesized by one of skill in the art, the compounds in Table 2 were synthesized, characterized and tested. AC1.4 values were determined according to the procedure described in Example 39, and the reported median AC1.4 values are as follows: A=<1 uM; B=1-10 uM; C=10-20 uM; D=>20 uM.

Row | Mean AC1.4 | Structure (SMILES)
1 | D (D=>20 uM) | CC(C)(CNc1ccc(CO)nn1)c1ccc(F)cc1
2 | A (A=<1 uM) | CCNc1n[nH]c2ccc(-c3ccc(NCC4(c5ncccc5F)CCC4)nn3)cc12 [{6-[3-(ethylamino)(1H-indazol-5-yl)]pyridazin-3-yl}{[(3-fluoro(2-pyridyl))cyclobutyl]methyl}amine]
3 | D (D=>20 uM) | NC(=O)c1cccc(-c2ccc(NCC3(C(N)=O)CCC3)nn2)c1 [3-(6-{[(carbamoylcyclo-butyl)methyl]amino}pyridazin-3-yl)benzamide]
4 | B (B=1-10 uM) | CC(C)(CNc1ccc(-c2ccc3[nH]nc(C(=N)N)c3c2)nn1)c1ccc(F)cc1 [5-(6-{[2-(4-fluorophenyl)-2-methylpropyl]amino}pyridazin-3-yl)-1H-indazole-3-carboxamidine]
5 | A (A=<1 uM) | NC(=O)c1cccc(-c2ccc(NCC3(c4ccc(F)cc4)CCC3)nn2)c1
6 | D (D=>20 uM) | NC(=O)c1cccc(-c2ccc(NCCc3cccnc3)nn2)c1 [3-{6-[(2-(3-pyridyl)ethyl)amino]pyridazin-3-yl}benzamide]
7 | A (A=<1 uM) | CC(C)(CNc1ccc(-c2ccc3[nH]c(=O)oc3c2)nn1)c1ccc(F)cc1
8 | B (B=1-10 uM) | COc1ccc(C2(CNc3ccc(-c4ccc5cn[nH]c5c4)nn3)CCC2)nc1 [(6-(1H-indazol-6-yl)pyridazin-3-yl){[(5-methoxy(2-pyridyl))cyclobutyl]methyl}amine]
9 | A (A=<1 uM) | Nc1ccc(-c2ccc(NCC3(c4ncccc4F)CCC3)nn2)nc1 [[6-(5-amino(2-pyridyl))pyridazin-3-yl]{[(3-fluoro(2-pyridyl))cyclobutyl]methyl}amine]
10 | B (B=1-10 uM) | CC(CNc1ccc(-c2cccc(C(N)=O)c2)nn1)c1ccccc1 (stereo not shown) [3-{6-[(2-phenylpropyl)amino]pyridazin-3-yl}benzamide]
11 | A (A=<1 uM) | O=c1[nH]c2ccc(-c3ccc(NCC4(c5ccc(F)cc5)CC4)nn3)cc2[nH]1
12 | B (B=1-10 uM) | CC(C)(C)OC(=O)N(CC(C)(C)c1ccc(F)cc1)c1ccc(-c2cc(=O)[nH]c(N)n2)nn1
13 | D (D=>20 uM) | CC(C)(Cc1ccc(F)cc1)Nc1ccc(-c2ccc3[nH]c(=O)[nH]c3c2)nn1
14 | D (D=>20 uM) | Oc1ccnc(C2(CNc3ccc(-c4ccc5[nH]ncc5c4)nn3)CCC2)c1
15 | B (B=1-10 uM) | CC(C)(CNc1ccc(C2=CCN(S(C)(=O)=O)CC2)nn1)c1ccc(F)cc1 [4-(6-{[2-(4-fluorophenyl)-2-methylpropyl]amino}pyridazin-3-yl)-1-(methylsulfonyl)-1,2,5,6-tetrahydropyridine]

Same assay, conditions: median AC1.4 class, procedure of Example 39

Row | Mean AC1.4 | Structure (SMILES)
16 | B (B=1-10 uM) | O=C(N[C@@H]1CCNC1)c1ccc(F)c(-c2ccc(NC[C@]3(c4ncccc4F)C[C@H](F)C3)nn2)c1 [N-((3R)pyrrolidin-3-yl){4-fluoro-3-[6-({[3-fluoro-1-(3-fluoro(2-pyridyl))cyclobutyl]methyl}ami-no)pyridazin-3-yl]phenyl}carboxamide]
17 | C (C=10-20 uM) | NCc1ccc(F)cc1-c1ccc(NCC2(c3ncccc3F)CCC2)nn1 [{6-[2-(aminomethyl)-5-fluorophenyl]pyridazin-3-yl} {[(3-fluoro(2-pyridyl))cyclobutyl]methyl}amine]
18 | D (D=>20 uM) | Cn1cc(C(N)=O)nc1-c1ccc(NCC2(c3ncccc3F)CCC2)nn1 [2-[6-({[(3-fluoro(2-pyridyl))cyclobutyl]methyl}ami-no)pyridazin-3-yl]-1-methylimidazole-4-carboxamide]
19 | D (D=>20 uM) | CC(C)(C)OC(=O)N1CCN(c2ncc(-c3ccc(NCC4(c5ncccc5F)CCC4)nn3)cn2)CC1
20 | D (D=>20 uM) | NC(=O)c1nccc(-c2ccc(NCC3(c4ncccc4F)CCC3)nn2)n1 [4-[6-({[(3-fluoro-2-pyridyl)cyclobutyl]methyl}ami-no)pyridazin-3-yl]pyrimidine-2-carboxamide]
21 | D (D=>20 uM) | CS(=O)(=O)N1Cc2nc(-c3ccc(NCC4(c5ncccc5F)CCC4)nn3)sc2C1 [2-[6-({[(3-fluoro(2-pyridyl))cyclobutyl]methyl}ami-no)pyridazin-3-yl]-5-(methylsulfonyl)-3-pyrrolino[3,4-d]1,3-thiazole]
22 | B (B=1-10 uM) | NC(=O)c1cccc(-c2ccc(NCC3(c4ncccc4F)CC(F)(F)C3)nn2)c1
23 | D (D=>20 uM) | COc1ccnc(C2(Nc3ccc(-c4cccc(C(N)=O)c4)nn3)CCC2)c1
24 | B (B=1-10 uM) | Fc1cccnc1C1(CNc2ccc(-c3ccc4[nH]ncc4c3)nn2)CC(F)(F)C1 [(6-(1H-indazol-5-yl)pyridazin-3-yl){[3,3-difluoro-1-(3-fluoro(2-pyridyl))cyclobutyl]methyl}amine]
25 | A (A=<1 uM) | O=C1CC[C@@H](C(=O)NCc2cnc(-c3ccc(NCC4(c5ncccc5F)CCC4)nn3)s2)N1 [((2S)-5-oxopyrrolidin-2-yl)-N-({2-[6-({[(3-fluoro(2-pyridyl))cyclobutyl]methyl}ami-no)pyridazin-3-yl](1,3-thiazol-5-yl)}methyl)carboxamide]
26 | B (B=1-10 uM) | Nc1ncc(-c2ccc(NCC3(c4ncccc4F)CCC3)nn2)cn1 [[6-(2-aminopyrimidin-5-yl)pyridazin-3-yl]{[(3-fluoro(2-pyridyl))cyclobutyl]methyl}amine]
27 | A (A=<1 uM) | CC(C)(N)C(=O)NCc1cnc(-c2ccc(NCC3(c4ncccc4F)CCC3)nn2)s1 [2-amino-N-({2-[6-({[(3-fluoro(2-pyridyl))cyclobutyl]methyl}ami-no)pyridazin-3-yl](1,3-thiazol-5-yl)}methyl)-2-methylpropanamide]
28 | C (C=10-20 uM) | NC(=O)c1cncc(-c2ccc(NCC3(c4ncccc4F)CCC3)nn2)n1 [6-[6-({[(3-fluoro-2-pyridyl)cyclobutyl]methyl}ami-no)pyridazin-3-yl]pyrazine-2-carboxamide]

Same assay, conditions: median AC1.4 reported as class; procedure of Example 39

Row | Mean AC1.4 | Structure (SMILES)
29 | B (B=1-10 uM) | O=C(O)c1cc(-c2ccc(NC[C@]3(c4ncccc4F)C[C@H](F)C3)nn2)ccc1O [5-[6-({[3-fluoro-1-(3-fluoro(2-pyridyl))cyclobutyl]methyl}ami-no)pyridazin-3-yl]-2-hydroxybenzoic acid]
30 | A (A=<1 uM) | NC(=O)c1cc(-c2ccc(NC[C@]3(c4ncccc4F)C[C@H](F)C3)nn2)ccc1O [5-[6-({[3-fluoro-1-(3-fluoro(2-pyridyl))cyclobutyl]methyl}ami-no)pyridazin-3-yl]-2-hydroxybenzamide]
31 | D (D=>20 uM) | O=C1CC[C@H](NC(=O)c2ccc(NCC3(c4ncccc4F)CCC3)nn2)CN1 [N-((3S)-6-oxo(3-piperidyl))[6-({[(3-fluoro(2-pyridyl))cyclobutyl]methyl}ami-no)pyridazin-3-yl]carboxamide]
32 | D (D=>20 uM) | O=C(O)C1CCc2sc(-c3ccc(NCC4(c5ncccc5F)CCC4)nn3)nc21 (stereo not shown) [2-[6-({[(3-fluoro-2-pyridyl)cyclobutyl]methyl}ami-no)pyridazin-3-yl]-4,5,6-trihydrocyclopenta[1,2-d]1,3-thiazole-4-carboxylic acid]
33 | B (B=1-10 uM) | Fc1cccnc1C1(CNc2ccc(-c3ncc(CN4CCOCC4)s3)nn2)CCC1 [{[(3-fluoro(2-pyridyl))cyclobutyl]methyl}{6-[5-(morpholin-4-ylmethyl)(1,3-thiazol-2-yl)]pyridazin-3-yl}amine]
34 | C (C=10-20 uM) | O=C(Nc1ncc[nH]1)c1ccc(NCC2(c3ncccc3F)CCC2)nn1 [[6-({[(3-fluoro(2-pyridyl))cyclobutyl]methyl}ami-no)pyridazin-3-yl]-N-imidazol-2-ylcarboxamide]
35 | B (B=1-10 uM) | CNC(=O)c1cccc(-c2ccc(NCC3(c4ncccc4F)CCC3)nn2)c1 [{3-[6-({[(3-fluoro(2-pyridyl))cyclobutyl]methyl}ami-no)pyridazin-3-yl]phenyl}-N-methylcarboxamide]
36 | B (B=1-10 uM) | O=C(Nc1nncs1)c1ccc(NCC2(c3ncccc3F)CCC2)nn1 [[6-({[(3-fluoro(2-pyridyl))cyclobutyl]methyl}ami-no)pyridazin-3-yl]-N-(1,3,4-thiadiazol-2-yl)carboxamide]
37 | B (B=1-10 uM) | NC(=O)c1cc(-c2ccc(NC[C@]3(c4ncccc4F)C[C@H](F)C3)nn2)cc(C(F)(F)F)c1 [3-[6-({[3-fluoro-1-(3-fluoro(2-pyridyl))cyclobutyl]methyl}ami-no)pyridazin-3-yl]-5-(trifluoromethyl)benzamide]
